Source: US12599674B2, “Conjugates, their compositions, and their related methods” (THE ADMINISTRATORS OF THE TULANE EDUCATIONAL FUND, priority 2021, dated 2026)
“Also recorded” adds a separate entry of the source.

How the values were obtained:
[1] = Body weights in U-937 xenograft study; format: in vivo; details: U-937 xenograft SCID mice, tail vein AP3 0.5 mg/kg days 0 and 15 (FIG. 11 legend)
Protocol: Female SCID mice (Tyercan, Ltd, Shenzhen) aged at 4-6 weeks-old were purchased and reared in the laboratory animal facility for one week to adapt to the new environment. A total of 5×10^6 human U-937 lymphoma tumor cells (200 μl) were inoculated into the right flank of each mouse by subcutaneous injection. […] […] 100 μl of normal saline was injected via the tail vein in a second control group on the same days. Tumor volumes were measured and mouse bodies were weighed twice a week since the first administration.

[2] = tested on: human gastric tumor SGC-7901 cells; assay: Xenograft mouse model, SGC-7901 tumor growth; format: in vivo, BALB/c nude mice; details: tail vein; 100 μl containing 0.4 mg of AP-3 on days 0 and 14; nude mice; compared to controls
Protocol: Female BALB/c nude mice aged at 4-6 weeks-old were purchased (Tyercan, Ltd, Shenzhen) and reared in the laboratory animal facility for one week to adapt to the new environment. A total of 5×10^6 human gastric tumor SGC-7901 cells (200 μl) were inoculated into the right flank of each mouse by subcutaneous injection. When the tumor sizes reached 100-300 mm^3 (tumor volume=0.5×Length×Width^2), tumor-carrying mice in the experimental group were given (via tail vein injection) a first dose (at day zero) of 100 μl of AP3-HSA 200 mg/kg and a second dose (at day 14) of 150 mg/kg. A control group was injected with 100 μl of AP-3 containing 0.4 mg of AP-3 on days 0 and 14 in a similar fashion. 100 μl of normal saline was injected via the tail vein in a second control group on the same days. Tumor volumes were measured and mouse bodies were weighed twice a week since the first administration.

COc1cc2cc(c1Cl)N(C)C(=O)C[C@H](OC(=O)C(C)C)[C@]1(C)O[C@@H]1[C@H](C)[C@@H]1C[C@@](O)(NC(=O)O1)[C@H](OC)/C=C/C=C(\C)C2 [AP3, Ansamitocin P3]
recovery of body weights after treatment [1]: returned to normal about a week after the final injections | effect on body weights ([1]; 0.5 mg/kg): decreases in body weight; also recorded: weight losses | effect on growth of SGC-7901 tumors [2]: only marginally effective
